Source: patent US8338422B2, “Indolin-2-ones and aza-indolin-2-ones” (Janssen Pharmaceutica NV, priority 2007, dated 2012)

What was measured:
H1299 = assay: Cellular proliferation assay (Alamar blue), H1299; format: cell-based; settings: Homo sapiens, NCI-H1299, 72 h, H1299 cells, 72 hours with compound, 10% FCS, read-out: pIC50 H1299 (converted)
Procedure, shortened: (§1)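 Proliferation was assessed over 72 h of compound treatment, following 24 h of seeding without compound, under 10% FCS, 37° C. and 5% CO2. Fluorescent resazurin product was measured and compared with control cells.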

MDA/MB231 = assay: Cellular proliferation assay (Alamar blue), MDA/MB231; format: cell-based; settings: Homo sapiens, MDA-MB-231, 72 h, MDA/MB231 cells, 72 hours with compound, 10% FCS, read-out: pIC50 MDA/MB231 (converted)
Procedure, shortened: as §1

A549 = assay: Cellular proliferation assay (Alamar blue), A549; format: cell-based; settings: Homo sapiens, A549 cells, 72 hours with compound, 10% FCS, read-out: pIC50 A549 (converted)
Procedure: (§2) […] functional properties of these compounds was tested in cellular proliferation assays on a panel of different cell lines in the presence of 10% FCS serum (37° C. and 5% (v/v) CO2). In a first step these cells were seeded and incubated for 24 hours in the absence of compound. In the second step the cells were incubated for 72 hours with the compounds to be tested for 72 hours. The viable cell number was finally assessed in a standard Alamar blue cell viability assay.
(§3) The viable cell number was assessed by incubation for either 4 h (HCT-116, H1299, H460) 6 h (SKOV3, HT29, U87-MG, Colo205) or 24 h (A2780, PC3, MDA-MB-231, A549, MCF-7) with Alamar blue (Resazurin 9 μg/ml, K-Ferrocyanide 90 μM K-Ferricyanide 90 μM) and the converted fluorescent product was quantified on a fluorescent plate readed (544 nm/590 nm). Effect of the compounds is calculated as of on control cells.

AuroraB (h) = AuroraB (h) (Homo sapiens, UniProt Q96GD4); assay: Aurora-B human kinase assay (SPA); format: biochemical; settings: read-out: AuroraB pIC50 (converted)
AuroraB (h), sequence (Q96GD4 whole entry): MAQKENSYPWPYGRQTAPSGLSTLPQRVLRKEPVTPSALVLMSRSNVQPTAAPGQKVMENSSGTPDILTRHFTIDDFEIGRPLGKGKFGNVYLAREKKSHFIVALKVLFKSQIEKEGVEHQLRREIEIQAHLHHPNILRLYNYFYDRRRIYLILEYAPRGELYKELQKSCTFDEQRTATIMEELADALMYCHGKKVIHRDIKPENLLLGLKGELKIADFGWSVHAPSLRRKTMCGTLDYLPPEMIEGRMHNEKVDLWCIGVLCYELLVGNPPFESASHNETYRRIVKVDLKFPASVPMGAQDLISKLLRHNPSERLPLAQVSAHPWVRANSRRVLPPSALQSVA
Procedure, shortened: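 33P-phosphorylated biotin-substrate captured on streptavidin PVT SPA beads after EDTA-containing stop and imaged on Leadseeker. Reaction: 60 min at room temperature, Hepes pH 7.5 with Mg2+/Mn2+. Conditions: 0.5 μM ATP plus 2.2 nM [γ-33P]ATP, 3 μM substrate, 0.5 μg/ml human AuroraB.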

DU-145 = assay: Cellular proliferation assay (Alamar blue), DU-145; format: cell-based; settings: Homo sapiens, DU-145 cells, 72 hours with compound, 10% FCS, read-out: pIC50 DU-145 (converted)
Procedure: as §2, §3

PLK4 (h) = PLK4 (h) (Homo sapiens, UniProt O00444); assay: PLK-4 human kinase assay (SPA); format: biochemical; settings: read-out: PLK4 pIC50 (converted)
PLK4 (h), sequence (O00444 whole entry): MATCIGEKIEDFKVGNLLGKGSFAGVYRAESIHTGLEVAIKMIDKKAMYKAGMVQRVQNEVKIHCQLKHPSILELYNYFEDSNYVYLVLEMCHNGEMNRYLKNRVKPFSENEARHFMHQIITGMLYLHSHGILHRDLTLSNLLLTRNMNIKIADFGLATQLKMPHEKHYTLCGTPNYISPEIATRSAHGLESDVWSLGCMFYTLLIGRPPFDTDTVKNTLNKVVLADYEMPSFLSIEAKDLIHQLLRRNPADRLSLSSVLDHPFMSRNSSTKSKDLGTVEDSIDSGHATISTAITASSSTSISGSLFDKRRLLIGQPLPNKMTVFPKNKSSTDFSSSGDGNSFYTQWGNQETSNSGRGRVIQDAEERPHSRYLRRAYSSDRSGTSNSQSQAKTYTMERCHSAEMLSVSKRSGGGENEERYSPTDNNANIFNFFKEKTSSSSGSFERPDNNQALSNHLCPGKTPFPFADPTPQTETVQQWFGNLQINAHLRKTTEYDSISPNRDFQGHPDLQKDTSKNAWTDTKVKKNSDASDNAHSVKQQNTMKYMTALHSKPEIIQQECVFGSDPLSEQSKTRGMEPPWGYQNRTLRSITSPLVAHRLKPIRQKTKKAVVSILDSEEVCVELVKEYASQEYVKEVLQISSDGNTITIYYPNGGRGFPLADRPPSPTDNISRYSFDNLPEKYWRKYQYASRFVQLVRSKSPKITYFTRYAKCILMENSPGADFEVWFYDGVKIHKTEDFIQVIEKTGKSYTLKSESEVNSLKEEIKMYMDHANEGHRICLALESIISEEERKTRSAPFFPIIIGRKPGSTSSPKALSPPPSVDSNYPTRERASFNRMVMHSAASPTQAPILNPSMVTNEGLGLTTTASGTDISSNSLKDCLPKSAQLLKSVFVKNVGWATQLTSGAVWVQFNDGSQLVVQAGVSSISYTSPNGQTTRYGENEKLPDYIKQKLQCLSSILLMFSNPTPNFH
Procedure, shortened: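 Radiometric readout: 33P-labelled peptide captured on streptavidin SPA beads after EDTA stop, imaged by Leadseeker. Reaction ran 60 min at room temperature in Hepes pH 8.0 buffer. It contained 1 μM ATP with 2 nM [γ-33P]ATP, 10 μM biotinylated peptide and PLK4 (h) at 19 μg/ml.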

HT-29 = assay: Cellular proliferation assay (Alamar blue), HT-29; format: cell-based; settings: Homo sapiens, HT-29 cells, 72 hours with compound, 10% FCS, read-out: pIC50 HT-29 (converted)
Procedure: as §2, §3

HCT-116 = assay: Cellular proliferation assay (Alamar blue), HCT-116; format: cell-based; settings: Homo sapiens, HCT-116, 72 h, HCT-116 cells, 72 hours with compound, 10% FCS, read-out: pIC50 HCT-116 (converted)
Procedure, shortened: as §1

SKOV3 = assay: Cellular proliferation assay (Alamar blue), SKOV3; format: cell-based; settings: Homo sapiens, SK-OV-3, SKOV3 cells, 72 hours with compound, 10% FCS, read-out: pIC50 SKOV3 (converted)
Procedure: as §2, §3

H460 = assay: Cellular proliferation assay (Alamar blue), H460; format: cell-based; settings: Homo sapiens, NCI-H460, H460 cells, 72 hours with compound, 10% FCS, read-out: pIC50 H460 (converted)
Procedure: as §2, §3

A431 = assay: Cellular proliferation assay (Alamar blue), A431; format: cell-based; settings: Homo sapiens, A-431, A431 cells, 72 hours with compound, 10% FCS, read-out: pIC50 A431 (converted)
Procedure: as §2, §3

SK-N-SH = assay: Cellular proliferation assay (Alamar blue), SK-N-SH; format: cell-based; settings: Homo sapiens, SK-N-SH cells, 72 hours with compound, 10% FCS, read-out: pIC50 SK-N-SH (converted)
Procedure: as §2, §3

PC-3 = assay: Cellular proliferation assay (Alamar blue), PC-3; format: cell-based; settings: Homo sapiens, PC-3, 72 h, PC-3 cells, 72 hours with compound, 10% FCS, read-out: pIC50 PC-3 (converted)
Procedure, shortened: as §1

Colo205 = assay: Cellular proliferation assay (Alamar blue), Colo205; format: cell-based; settings: Homo sapiens, COLO 205, Colo205 cells, 72 hours with compound, 10% FCS, read-out: pIC50 Colo205 (converted)
Procedure: as §2, §3

MCF-7 = assay: Cellular proliferation assay (Alamar blue), MCF-7; format: cell-based; settings: Homo sapiens, MCF7, MCF-7 cells, 72 hours with compound, 10% FCS, read-out: pIC50 MCF-7 (converted)
Procedure: as §2, §3

GSK3β (h) = GSK3β (h) (Homo sapiens, UniProt P49841); assay: GSK-3β human kinase assay (SPA); format: biochemical; settings: read-out: GSK3B pIC50 (converted)
GSK3β (h), sequence (P49841 whole entry): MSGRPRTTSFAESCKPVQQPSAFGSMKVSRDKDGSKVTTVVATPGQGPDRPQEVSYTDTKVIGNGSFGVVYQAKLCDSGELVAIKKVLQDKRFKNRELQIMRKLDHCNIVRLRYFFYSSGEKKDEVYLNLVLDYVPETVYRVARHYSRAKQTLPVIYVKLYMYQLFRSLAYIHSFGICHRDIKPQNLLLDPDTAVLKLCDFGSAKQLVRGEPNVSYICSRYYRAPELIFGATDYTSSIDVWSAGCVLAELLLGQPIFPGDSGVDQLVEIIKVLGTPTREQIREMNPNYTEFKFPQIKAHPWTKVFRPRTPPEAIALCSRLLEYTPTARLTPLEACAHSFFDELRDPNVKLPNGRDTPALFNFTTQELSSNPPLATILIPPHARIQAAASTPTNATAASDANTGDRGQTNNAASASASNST
Procedure, shortened: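 Radiometric SPA read-out: after EDTA stop, biotinylated 33P-labelled peptide bound streptavidin PVT beads and was imaged on Leadseeker. Reaction: 60 min, room temperature, GSK3β (h) at 1 μg/ml, 1 μM substrate peptide, 1 μM ATP with 2 nM [γ-33P]ATP, Tris pH 7.4/MgCl2/DTT buffer.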

CDK1/CyclinB (h) = CDK1/CyclinB (h) (Homo sapiens, UniProt P06493); assay: CDK1/CyclinB human kinase assay (FRET); format: biochemical; settings: read-out: CDK1 pIC50 (converted)
CDK1/CyclinB (h), sequence (P06493 whole entry): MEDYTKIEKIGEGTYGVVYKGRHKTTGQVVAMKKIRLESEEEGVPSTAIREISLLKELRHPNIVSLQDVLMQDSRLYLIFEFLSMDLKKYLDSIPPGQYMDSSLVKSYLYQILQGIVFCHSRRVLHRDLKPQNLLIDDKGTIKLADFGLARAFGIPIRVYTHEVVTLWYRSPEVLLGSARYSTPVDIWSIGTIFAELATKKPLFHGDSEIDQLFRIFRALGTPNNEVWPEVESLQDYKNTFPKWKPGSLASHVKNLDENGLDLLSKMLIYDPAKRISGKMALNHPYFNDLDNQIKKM
CDK1/CyclinB (h), sequence (P14635 whole entry partner): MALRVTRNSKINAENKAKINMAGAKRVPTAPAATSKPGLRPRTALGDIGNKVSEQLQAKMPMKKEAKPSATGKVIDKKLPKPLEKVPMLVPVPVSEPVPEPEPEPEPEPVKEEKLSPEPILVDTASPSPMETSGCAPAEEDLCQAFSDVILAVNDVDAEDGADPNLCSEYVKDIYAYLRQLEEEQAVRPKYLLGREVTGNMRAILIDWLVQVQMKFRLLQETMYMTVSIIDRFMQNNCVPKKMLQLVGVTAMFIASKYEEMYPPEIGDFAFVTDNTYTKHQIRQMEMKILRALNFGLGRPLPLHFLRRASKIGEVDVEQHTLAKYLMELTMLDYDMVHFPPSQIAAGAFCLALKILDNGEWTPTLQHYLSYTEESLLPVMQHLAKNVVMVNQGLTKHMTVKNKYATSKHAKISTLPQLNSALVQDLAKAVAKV
Procedure, shortened: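 Kinase activity was read as the 460/538 nm emission ratio after protease cleavage of unphosphorylated peptide (60 min development). The reaction ran 60 min at room temperature with 10 μM ATP, 2 μM Ser/Thr peptide 12 and 0.2 μg/ml enzyme in Hepes pH 7.5 buffer with MgCl2, EGTA, Brij-35.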

U87MG = assay: Cellular proliferation assay (Alamar blue), U87MG; format: cell-based; settings: Homo sapiens, U-87 MG, 72 h, U87MG cells, 72 hours with compound, 10% FCS, read-out: pIC50 U87MG (converted)
Procedure, shortened: as §1

A2780 = assay: Cellular proliferation assay (Alamar blue), A2780; format: cell-based; settings: Homo sapiens, A2780, 72 h, A2780 cells, 72 hours with compound, 10% FCS, read-out: pIC50 A2780 (converted)
Procedure, shortened: as §1

| SMILES | IC50 (H1299) [µM] | IC50 (A549) [µM] | IC50 (AuroraB (h)) [µM] | IC50 (DU-145) [µM] | IC50 (PLK4 (h)) [µM] | IC50 (HT-29) [µM] | IC50 (HCT-116) [µM] | IC50 (SKOV3) [µM] | IC50 (H460) [µM] | IC50 (A431) [µM] | IC50 (SK-N-SH) [µM] | IC50 (PC-3) [µM] | IC50 (Colo205) [µM] | IC50 (MCF-7) [µM] | IC50 (GSK3β (h)) [µM] | melting point [°C] | IC50 (CDK1/CyclinB (h)) [µM] | IC50 (MDA/MB231) [µM] | IC50 (U87MG) [µM] | IC50 (A2780) [µM] |
| --- | --- | --- | --- | --- | --- | --- | --- | --- | --- | --- | --- | --- | --- | --- | --- | --- | --- | --- | --- | --- |
| CN1CCCC(=O)NCC#Cc2cccc3c2/C(=C/Nc2cccc(c2)S(=O)(=O)N(C)CC1=O)C(=O)N3 [Compound 3] |  |  | > 10 |  | 3.16 |  |  |  |  |  |  |  |  |  | 1.86 | > 240 | > 10 |  |  |  |
| CN1CC(=O)N(CCN2CCOCC2)CCC(=O)NCC#Cc2cccc3c2/C(=C/Nc2cccc(c2)S1(=O)=O)C(=O)N3 [Compound 5] |  |  | 8.32 |  | 4.17 |  |  |  |  |  |  |  |  |  | 8.13 | > 240 | > 10 |  |  |  |
| CN1CCCCCC(=O)N2CCN(CC2)c2ncnc3c2/C(=C/Nc2cccc(c2)C1)C(=O)N3 [Compound 24] |  | > 10 | > 10 | > 10 | 1.51 | > 10 | > 10 | > 10 | > 10 | > 10 | > 10 | > 10 | > 10 | > 10 |  |  |  | > 10 | > 10 | > 10 |

Now from value to compound, other results behind:

| IC50 (H1299) [µM] | IC50 (A549) [µM] | IC50 (AuroraB (h)) [µM] | IC50 (DU-145) [µM] | IC50 (PLK4 (h)) [µM] | IC50 (HT-29) [µM] | IC50 (HCT-116) [µM] | IC50 (SKOV3) [µM] | IC50 (H460) [µM] | IC50 (A431) [µM] | IC50 (SK-N-SH) [µM] | IC50 (PC-3) [µM] | IC50 (Colo205) [µM] | IC50 (MCF-7) [µM] | IC50 (GSK3β (h)) [µM] | melting point [°C] | IC50 (CDK1/CyclinB (h)) [µM] | SMILES | IC50 (MDA/MB231) [µM] | IC50 (U87MG) [µM] | IC50 (A2780) [µM] |
| --- | --- | --- | --- | --- | --- | --- | --- | --- | --- | --- | --- | --- | --- | --- | --- | --- | --- | --- | --- | --- |
| > 10 | > 10 | > 10 | > 10 | > 10 | > 10 | > 10 | > 10 | > 10 | > 10 | > 10 | > 10 | > 10 | > 10 |  |  |  | O=C1Nc2ncnc3c2C1=CNc1ccc(c(Cl)c1)OCCCCCC(=O)N1CCN3CC1 (mixture of isomers) [Compound 14] | > 10 |  |  |
| > 10 | > 10 | > 10 | > 10 |  | > 10 | > 10 | > 10 | > 10 | > 10 | 6.61 | > 10 | 7.76 | > 10 |  |  |  | O=C1Nc2ncnc3c2/C1=C/Nc1ccc(c(Cl)c1)OCCCCCCC(=O)N1CCN3CC1 [Compound 20] | > 10 |  |  |
| > 10 | > 10 | > 10 | > 10 | > 10 | > 10 | > 10 | > 10 | > 10 | > 10 | > 10 | > 10 | > 10 | > 10 |  |  |  | O=C1Nc2ncnc3c2/C1=C/Nc1ccc(c(F)c1)OCCCCCC(=O)N1CCN3CC1 [Compound 22] | > 10 |  |  |
